In paper PMC5520994 (Science signaling, 2017):
Entries after “also recorded” stand apart in the source; their conditions may differ. Like-named read-outs stand apart in the source and are kept apart here.

Columns and labels:
[1] = target: IL-17A/IL-17RA binding (Homo sapiens, UniProt Q96F46); assay: Ligand-receptor binding inhibition assay
[2] = test system: IL-17A/IL-17F; assay: IL-17A/IL-17F–stimulated expression of target genes in cultured cells; assay type: cell-based
[3] = test system: IL-17A; assay: IL-17A–stimulated cytokine and chemokine production in mouse cells; assay type: cell-based; conditions: 24 hours, ELISA
[4] = test system: WT BALB/cJ mice; assay: Intranasal injection of IL-17E, pulmonary eosinophilia; assay type: in vivo; conditions: A18 60 μg per mouse intranasally, 24 hours
[5] = test system: WT C57BL/6 mice; assay: TPA-induced skin hyperplasia; assay type: in vivo, mouse; conditions: dorsal skin, RT-PCR (Myc, Cxcl1, Steap4), day 7
[6] = target: T1, IL-17C/IL-17RE binding (Homo sapiens, UniProt Q8NFR9); assay: Ligand-receptor binding inhibition assay; conditions: serial dilutions, purified proteins
T1 sequence (Q8NFR9 155-454): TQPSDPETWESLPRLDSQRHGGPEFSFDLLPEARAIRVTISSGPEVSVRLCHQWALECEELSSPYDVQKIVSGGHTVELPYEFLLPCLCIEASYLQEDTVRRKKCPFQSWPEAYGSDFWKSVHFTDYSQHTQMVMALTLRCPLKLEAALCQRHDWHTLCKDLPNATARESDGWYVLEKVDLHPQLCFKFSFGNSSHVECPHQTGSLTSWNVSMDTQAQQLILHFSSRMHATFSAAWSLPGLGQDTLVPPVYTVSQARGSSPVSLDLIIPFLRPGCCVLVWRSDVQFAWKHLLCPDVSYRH

[7] = test system: WT C57BL/6J mice; assay: Adoptive transfer of MOG-specific TH17 cells to induce EAE; assay type: in vivo, mouse
[8] = test system: WT BALB/cJ mice; assay: Intranasal injection of IL-17A, pulmonary neutrophilia; assay type: in vivo; conditions: A18 60 μg per mouse intranasally, 4 hours
[9] = target: IL-17RA (Homo sapiens, UniProt Q96F46); assay: Surface plasmon resonance; assay type: binding; conditions: immobilized IL-17RA on CM5 chip
IL-17RA, sequence (Q96F46 33-320 limits assumed): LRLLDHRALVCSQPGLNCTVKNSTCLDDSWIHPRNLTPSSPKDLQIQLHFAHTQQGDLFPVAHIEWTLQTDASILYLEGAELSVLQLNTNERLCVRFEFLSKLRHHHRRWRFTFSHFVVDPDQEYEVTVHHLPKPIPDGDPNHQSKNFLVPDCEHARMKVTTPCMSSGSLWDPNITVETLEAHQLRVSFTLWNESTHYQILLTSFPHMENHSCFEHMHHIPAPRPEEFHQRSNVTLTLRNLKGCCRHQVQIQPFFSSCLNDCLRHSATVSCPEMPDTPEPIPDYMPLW

[10] = test system: WT C57BL/6 mice; assay: Adoptive transfer of OVA-specific TH2 cells, eosinophilic airway inflammation; assay type: in vivo, mouse; conditions: RT-PCR
[11] = test system: WT C57BL/6 mice; assay: Intradermal injection of IL-17A into ears, epidermal hyperplasia; assay type: in vivo, mouse; conditions: IL-17 plus A18 vs PBS-treated mice, RT-PCR
[12] = test system: IL-17E; assay: IL-17E–stimulated CXCL1 production / target gene expression in HT29 cells; assay type: cell-based, human; conditions: 24 hours
[13] = test system: IL-17E; assay type: cell-based, mouse; conditions: IL-17RB–expressing MEFs, 24 hours
[14] = test system: WT C57BL/6 mice; assay: Adoptive transfer of OVA-specific TH17 cells, neutrophilic airway inflammation; assay type: in vivo, mouse; conditions: TH17 cell transfer, RT-PCR
[15] = test system: IL-17A; assay: IL-17A–stimulated cytokine and chemokine production in human cells; assay type: cell-based; conditions: 24 hours, ELISA
[16] = test system: WT C57BL/6 mice; assay: HDM-induced severe asthma model; assay type: in vivo; conditions: A18 120 μg per mouse i.p. days 13 and 14 plus 60 μg per mouse intranasally 1 hour before challenge
[17] = test system: IL-17A; assay: IL-17A–mediated signaling events in HeLa cells; assay type: cell-based, human
[18] = target: IL-17RA (WT) (Homo sapiens, UniProt Q96F46); assay: Fluorescence quenching assay of A18 binding to labeled IL-17RA
IL-17RA (WT), sequence (Q96F46 33-320 limits assumed): as above

[19] = target: IL-17RA on IL-17RA–293 cells and HeLa cells (Homo sapiens, UniProt Q96F46); assay: Binding of biotinylated IL-17A to live cells, flow cytometry; assay type: cell-based; conditions: A18 10 μM
IL-17RA on IL-17RA–293 cells and HeLa cells, sequence (Q96F46 33-866): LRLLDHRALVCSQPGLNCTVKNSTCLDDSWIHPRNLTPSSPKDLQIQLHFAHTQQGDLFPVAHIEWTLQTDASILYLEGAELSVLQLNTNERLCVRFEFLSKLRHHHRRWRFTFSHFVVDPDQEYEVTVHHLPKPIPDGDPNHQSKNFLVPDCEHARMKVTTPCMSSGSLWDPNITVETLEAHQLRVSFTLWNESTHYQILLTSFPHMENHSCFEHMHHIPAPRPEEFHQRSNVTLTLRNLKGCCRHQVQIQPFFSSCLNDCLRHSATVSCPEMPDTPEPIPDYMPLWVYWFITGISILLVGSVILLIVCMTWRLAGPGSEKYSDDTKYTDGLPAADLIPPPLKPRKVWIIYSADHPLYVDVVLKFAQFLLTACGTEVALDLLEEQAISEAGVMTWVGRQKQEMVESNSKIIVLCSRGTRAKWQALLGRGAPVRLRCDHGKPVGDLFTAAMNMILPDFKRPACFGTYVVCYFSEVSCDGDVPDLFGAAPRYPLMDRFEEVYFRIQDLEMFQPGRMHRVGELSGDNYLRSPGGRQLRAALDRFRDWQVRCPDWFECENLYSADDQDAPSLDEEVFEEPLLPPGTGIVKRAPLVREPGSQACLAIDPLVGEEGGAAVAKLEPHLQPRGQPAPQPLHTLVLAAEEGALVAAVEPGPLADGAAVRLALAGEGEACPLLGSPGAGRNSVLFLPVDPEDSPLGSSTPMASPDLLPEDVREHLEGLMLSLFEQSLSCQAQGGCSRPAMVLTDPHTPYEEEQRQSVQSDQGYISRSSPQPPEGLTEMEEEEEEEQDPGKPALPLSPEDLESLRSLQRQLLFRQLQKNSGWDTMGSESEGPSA

[20] = test system: IL-17F; assay: IL-17F–stimulated expression of target genes in cultured cells; assay type: cell-based
[21] = target: T2, IL-17RA D262A mutant (Homo sapiens, UniProt Q96F46, D293A); assay: Fluorescence quenching assay of A18 binding to labeled IL-17RA D262A mutant
T2 sequence (Q96F46 33-320 D293A): as the sequence (Q96F46 33-320 limits assumed) above, with D261A counted along it

[22] = target: T3, IL-17E/IL-17RB binding (Homo sapiens, UniProt Q9NRM6); assay: Ligand-receptor binding inhibition assay; conditions: serial dilutions, purified proteins
T3 sequence (Q9NRM6 18-289): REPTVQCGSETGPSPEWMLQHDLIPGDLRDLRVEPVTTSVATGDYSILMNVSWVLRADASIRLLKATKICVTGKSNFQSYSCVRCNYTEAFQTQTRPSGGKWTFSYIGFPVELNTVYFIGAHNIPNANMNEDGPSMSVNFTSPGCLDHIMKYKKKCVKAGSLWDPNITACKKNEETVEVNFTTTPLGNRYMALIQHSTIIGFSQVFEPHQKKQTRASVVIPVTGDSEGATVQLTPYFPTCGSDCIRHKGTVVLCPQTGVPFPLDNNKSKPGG

[23] = target: T2, IL-17RA D262A mutant; assay: Microscale thermophoresis of IL-17A binding to IL-17RA D262A mutant; conditions: read-out: binding affinity (Kd) of IL-17RA D262A for IL-17A, MST
[24] = target: human IL-17RA D262A mutant protein (soluble, secreted, hexahistidine-tagged) (human); assay: MST
[25] = target: T4, human IL-17RB-Fc (human, UniProt Q9NRM6 18-289); assay: ELISA
T4 sequence (looked up): T3 sequence (Q9NRM6 18-289)

[26] = target: T5, human IL-17RE-Fc (human, UniProt Q8NFR9 155-454); assay: ELISA
T5 sequence (looked up): T1 sequence (Q8NFR9 155-454)

[27] = TH17 cell–mediated EAE, flow cytometry

IL-17A/IL-17RA binding, sequence (Q96F46 33-322): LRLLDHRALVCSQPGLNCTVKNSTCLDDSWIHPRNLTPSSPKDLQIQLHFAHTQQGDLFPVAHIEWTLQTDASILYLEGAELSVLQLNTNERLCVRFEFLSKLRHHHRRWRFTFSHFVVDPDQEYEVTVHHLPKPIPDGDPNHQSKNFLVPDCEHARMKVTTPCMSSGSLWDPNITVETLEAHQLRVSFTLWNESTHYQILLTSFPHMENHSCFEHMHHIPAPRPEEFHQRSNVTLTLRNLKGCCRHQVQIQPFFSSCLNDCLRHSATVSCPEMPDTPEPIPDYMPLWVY

`Oc1cc(O)c2cc(O)c(-c3cc(O)c(O)c(O)c3)[o+]c2c1` [A10, delphinidin] was tested, and the “IC50 value compared to that of A18, IL-17A/IL-17RA binding” value ([1]; in words, relative to A18) was “slightly improved”.

`Oc1cc(O)c2cc(O)c(-c3ccc(O)c(O)c3)[o+]c2c1.[Cl-]` [A18, 2-(3,4-dihydroxyphenyl)-3,5,7-trihydroxy-1-benzopyrylium chloride] was tested, and the “IL-17A/IL-17F–stimulated expression of target genes” value [2] was “inhibited”, the “IL-17A–stimulated production of CXCL1 (KC), IL-6 and CXCL2 (MIP-2)” value [3] was “substantially inhibited” and the “IL-17E–induced pulmonary eosinophilia” value [4] was “did not inhibit”. The “TH2 cell–associated gene expression in lung” value ([4]; IL-17E) was “did not inhibit”, the “TPA-induced expression of target genes” value [5] was “substantially reduced” and the “disruption of IL-17C/IL-17RE binding” value [6] was “did not efficiently disrupt”. The “EAE disease severity (peak and remission stages) after cessation of A18” value ([7]; A18 withdrawn on day 15, compared with mice never treated with A18) was “substantially reduced”, the “numbers of CD4+CD25+Foxp3+ Treg cells in lymphoid organs or CNS” value ([7]; EAE recovery phase (day 20)) was “did not affect” and the “demyelination in the spinal cords” value ([7]; TH17 cell–mediated EAE) was “diminished demyelination”. The “expression of IL-17A target genes” value ([7]; TH17 cell–mediated EAE) was “reduced expression”, the “infiltration into the brains of CD4+ T cells, CD8+ T cells or F4/80+ macrophages” value [7, 27] was “no effect” and the “recruitment of Ly6G+ neutrophils into the brains” value [7, 27] was “substantially reduced”. For the same molecule, the “IL-17A–induced pulmonary neutrophilia” value [8] was “substantially inhibited”, the “expression of IL-17A target genes (Cxcl1, Il6, Ccl11) in lung” value [8] was “substantially inhibited” and the “binding to IL-17RA by SPR” value [9] was “confirmed the binding”. For the same molecule, the “expression of genes encoding TH2 cell–type cytokines in the lungs” value [10] was “no effect”, the “abundances of Myc, Cxcl1 and Steap4 mRNAs in the ears” value [11] was “not substantially increased” and the “IL-17E–stimulated production of CXCL1 / expression of target genes” value [12] was “limited inhibitory activity; also recorded: little effect”. The “IL-17E–stimulated production of CXCL1 / expression of target genes” value [13] was “limited inhibitory activity; also recorded: little effect”, the “inflammatory gene expression in the lungs” value [14] was “substantially reduced” and the “IL-17A–stimulated production of CXCL1 (GROα), IL-6 and IL-8” value [15] was “substantially inhibited”. For the same molecule, the “HDM-induced AHR” value [16] was “substantially reduced”, the “HDM-induced inflammatory gene expression in the lungs” value [16] was “substantially reduced” and the HDM-induced neutrophilia [16] was “substantially reduced”. For the same molecule, the “IL-17A–mediated recruitment of Act1 to IL-17RA” value ([17]; 10 μM A18) was “decreased”, the “IL-17A–mediated phosphorylation of IκBα, JNK, p38 and ERK1/2” value ([17]; pretreated 1 hour with 10 μM A18) was “decreased” and the Kd [18] was about 3 µM. For the same molecule, the “binding of IL-17A to ectopically expressed or endogenous IL-17RA on live cells” value [19] was “inhibited”, the “IL-17F–stimulated expression of target genes” value [20] was “inhibited” and the IC50 [1] was 1.68 µM. For the same molecule, the Kd [21] was 6.35 µM and the “disruption of IL-17E/IL-17RB binding” value [22] was “did not efficiently disrupt”.

`OC[C@H]1O[C@@H](Oc2cc3c(O)cc(O)cc3[o+]c2-c2ccc(O)c(O)c2)[C@H](O)[C@@H](O)[C@@H]1O` [cyanidin-3-O-glucoside] showed an IC50 ([1]; read-out: IC50, inhibition of IL-17A/IL-17RA binding, in vitro ligand-receptor binding inhibition assay, purified proteins) of 6.88 µM.

`Oc1cc(O)c2ccc(-c3ccc(O)c(O)c3)[o+]c2c1` [luteolinidin] gave an IC50 [1] of 6.75 µM.

`Oc1ccc(-c2[o+]c3cc(O)cc(O)c3cc2O)cc1` [pelargonidin] gave an IC50 [1] of over 100 µM.

Molecule “IL-17A: purified recombinant human interleukin-17A, cytokine ligand of IL-17RA” has a Kd [23] of 1.57 µM.

For “purified recombinant human IL-17A (from UniProt Q16552 24-155) (ligand)”, the Kd [24] was 1.57 µM.

B1: purified recombinant human IL-17E (IL-25) (ligand, UniProt Q9H293 33-177, looked up)
chain: YSHWPSCCPSKGQDTSEELLRWSTVPVPPLEPARPNRHPESCRASEDGPLNSRAISPWRYELDRDLNRLPQDLYHARCLCPHCVSLQTGSHMDPRGNSELLYHNQTVFYRRPCHGEKGTHKGYCLERRLYRVSLACVCVRPRVMG
B1: binds [25].

B2: purified recombinant human IL-17C (ligand, UniProt Q9P0M4 19-197, looked up)
chain: HHDPSLRGHPHSHGTPHCYSAEELPLGQAPPHLLARGAKWGQALPVALVSSLEAASHRGRHERPSATTQCPVLRPEEVLEADTHQRSISPWRYRVDTDEDRYPQKLAFAECLCRGCIDARTGRETAALNSVRLLQSLLVLRRRPCSRDGSGLPTPGAFAFHTEFIHVPVGCTCVLPRSV
B2: binds [26].
